Experimental data published in patent publication US10093670B2, “Azabenzimidazole derivative having AMPK-activating activity” (Shionogi & Co., Ltd., priority 2011, dated 2018).

Assays:
human AMPK α1β1γ1 enzyme = molecular target: T1, human AMPK α1β1γ1 enzyme (Homo sapiens, UniProt Q13131+Q9Y478); experiment: Evaluation of AMPK activator, Test Example 1 (mobility-shift kinase assay, FL-Peptide 7); format: biochemical; settings: for EC150 (compound concentration showing 150% relative to the control (100%)): human AMPK α1β1γ1, 25° C., 2 hours, 0.2 mM ATP final; for Emax: read-out: Emax (maximum rate of increase in activity within the measurement range)
T1 construct: purchased Carna Biosciences, Inc
Procedure: The obtained liquid was left to stand for 10 minutes.
The obtained liquid was allowed to react at 25° C. for 2 hours, and 10 μl of 20 mM EDTA was then added thereto to stop the reaction.
(§1) To detect phosphorylated fluorescent substrates, the reaction liquid was applied to a measuring device, LabChip EZ Reader II manufactured by Caliper Life Science, Inc., for detecting fluorescence by using differences in mobility due to differences in charge. The setting conditions for the device were pressure, −1.5 PSI; upstream voltage, −2250 V; downstream voltage, −400 V; post sample buffer sip time, 40 seconds; final delay, 120 seconds; and peak order, Product First.
(§2) A conversion rate was calculated from the peak heights of the resulting substrate and product. The conversion rate when not containing a compound was used as a control, and a concentration dependent curve was made by plotting the rate of increase in activity to the control at each concentration of a compound.

Human AMPK α2β2γ1 = molecular target: T2, Human AMPK α2β2γ1 (Homo sapiens, UniProt O43741+P54646); experiment: Evaluation of AMPK activator, Test Example 2 (CaMKK2-phosphorylated enzyme, mobility-shift kinase assay); format: biochemical; settings: for EC150 (compound concentration showing 150% relative to the control (100%)): human AMPK α2β2γ1 phosphorylated by CaMKK2, 25° C., 2 hours; for Emax: human AMPK α2β2γ1 phosphorylated by CaMKK2, relative to control (100%), read-out: Emax (maximum rate of increase in activity within the measurement range)
T2 construct: The full length cDNAs of human AMPK β2 (NM_005399.3) and human AMPK α2 (NM_006252.3) were inserted; the full length cDNA of human AMPK γ1 (NM_002733.3) had been inserted into pET28b(+); 6xHis (N); made in house; host or cells: Escherichia coli BL21 CodonPlus (DE3)-RIL (AMPK); BL21 Star (DE3) (CaMKKβ)
Procedure: The full length cDNAs of human AMPK β2 (NM_005399.3) and human AMPK α2 (NM_006252.3) were inserted into the MCS1 and MCS2 of the pETDuet-1 vector to prepare a human AMPK β2 and human AMPK α2 (6× His tag at the 5′ terminus) expressing plasmid. The plasmid was contransfected with an expression plasmid, in which the full length cDNA of human AMPK γ1 (NM_002733.3) had been inserted into pET28b(+), into BL21 CodonPlus (DE3)-RIL to obtain an expression strain. The expression strain was cultured in TB medium, followed by induction with 0.5 mM IPTG, and cultured at 25° C. for 3 hours and then harvested. After ultrasonication, supernatant was collected and applied to Histrap FF column (GE) and RESOUECE Q column (GE) to prepare 12.5 mg of purified sample containing three types of subunit from 1.8 L of broth.
An expression vector, in which the full length cDNA of human CAMKK β (NM_172226.1) had been inserted into pGEX-6P-3, was transfected into BL21 Star (DE3). The expression strain was cultured in TB medium, followed by induction with 0.5 mM IPTG, and cultured at 25° C. for 3 hours and then harvested. After ultrasonication, supernatant was collected and applied to GSTrap FF column (GE) to prepare 14 mg of GST-fused CAMKK β from 720 ml of broth.
Evaluation Method of an Activator for AMP-activated Protein Kinase (AMPK) (Test Example 2)
Thus, phosphorylation treatment was carried out as pretreatment.
Human AMPK α2β2γ1 in an amount to give a conversion rate of approximately 10% by reaction for 2 hours, and CaMKK2 in an amount capable of sufficiently imparting activity to AMPK for one hour were mixed in a buffer solution consisting of a 50 mM HEPES-NaOH buffer solution (pH 7.0), 100 mM NaCl, 5 mM magnesium chloride, 0.1% bovine serum albumin, 0.2 mM sodium orthovanadate(V), 1 mM ethylene glycol-bis(2-aminoethyl ether)-N,N,N′,N′-tetraacetic acid (EGTA), 5 mM disodium β-glycerophosphate, 1 mM dithiothreitol and 0.2 mM ATP, and the obtained liquid was left to stand at 25° C. for 1 to 1.5 hours to sufficiently phosphorylate AMPK.
After that, to the enzyme liquid, which had been subjected to phosphorylation treatment, a compound dissolved in DMSO was added so as to have a 1% DMSO concentration. The obtained liquid was left to stand for 10 minutes.
To the liquid, a substrate solution consisting of a 50 mM HEPES-NaOH buffer solution (pH 7.0), 100 mM NaCl, 10 mM magnesium chloride, 0.1% bovine serum albumin, 0.2 mM sodium orthovanadate(V), 1 mM ethylene glycol-bis(2-aminoethyl ether)-N,N,N′,N′-tetraacetic acid (EGTA), 5 mM disodium β-glycerophosphate, 2 mM dithiothreitol, 0.4 mM ATP and 3 μM FL-Peptide 7 (manufactured by Caliper Life Sciences, Inc.) was added in equal amount (10 μl in total). The obtained liquid was allowed to react at 25° C. for 2 hours, and 10 μl of 20 mM EDTA was then added thereto to stop the reaction.
as §1, §2

[1] = human AMPK α1β1γ1, relative to control (100%)

T2 sequence (P54646 whole entry): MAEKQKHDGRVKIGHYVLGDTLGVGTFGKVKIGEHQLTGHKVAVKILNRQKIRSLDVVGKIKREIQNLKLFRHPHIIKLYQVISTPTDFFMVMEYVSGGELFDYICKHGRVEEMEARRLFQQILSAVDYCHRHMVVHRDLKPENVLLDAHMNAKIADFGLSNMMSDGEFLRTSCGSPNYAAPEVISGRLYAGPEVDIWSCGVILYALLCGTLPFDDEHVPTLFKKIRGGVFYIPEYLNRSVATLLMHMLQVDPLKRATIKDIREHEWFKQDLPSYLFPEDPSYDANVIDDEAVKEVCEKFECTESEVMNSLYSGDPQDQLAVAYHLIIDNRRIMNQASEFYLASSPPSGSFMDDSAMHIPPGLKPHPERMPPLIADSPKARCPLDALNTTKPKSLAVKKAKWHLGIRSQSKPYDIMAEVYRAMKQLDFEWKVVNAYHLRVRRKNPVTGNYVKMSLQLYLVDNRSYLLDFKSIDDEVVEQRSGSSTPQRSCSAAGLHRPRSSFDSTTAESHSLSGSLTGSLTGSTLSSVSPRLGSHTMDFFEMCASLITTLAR
T2 sequence (O43741 whole entry): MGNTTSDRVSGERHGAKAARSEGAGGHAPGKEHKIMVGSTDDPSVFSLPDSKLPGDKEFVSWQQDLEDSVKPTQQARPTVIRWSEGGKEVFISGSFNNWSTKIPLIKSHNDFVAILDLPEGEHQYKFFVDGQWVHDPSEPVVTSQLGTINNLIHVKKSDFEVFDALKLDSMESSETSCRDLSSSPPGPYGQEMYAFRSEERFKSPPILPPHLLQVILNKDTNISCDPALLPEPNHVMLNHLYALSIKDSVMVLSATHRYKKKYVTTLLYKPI
T2 sequence (P54619 whole entry partner): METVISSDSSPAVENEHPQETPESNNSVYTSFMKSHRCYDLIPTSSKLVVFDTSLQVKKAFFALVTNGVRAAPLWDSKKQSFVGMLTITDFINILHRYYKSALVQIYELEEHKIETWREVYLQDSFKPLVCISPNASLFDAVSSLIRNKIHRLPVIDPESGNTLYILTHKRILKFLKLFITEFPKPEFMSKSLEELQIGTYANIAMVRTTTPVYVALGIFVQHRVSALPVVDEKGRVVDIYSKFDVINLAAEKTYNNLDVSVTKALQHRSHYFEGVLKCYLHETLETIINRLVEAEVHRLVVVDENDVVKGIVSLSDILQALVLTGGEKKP
T1 sequence (Q13131 10-559 limits assumed): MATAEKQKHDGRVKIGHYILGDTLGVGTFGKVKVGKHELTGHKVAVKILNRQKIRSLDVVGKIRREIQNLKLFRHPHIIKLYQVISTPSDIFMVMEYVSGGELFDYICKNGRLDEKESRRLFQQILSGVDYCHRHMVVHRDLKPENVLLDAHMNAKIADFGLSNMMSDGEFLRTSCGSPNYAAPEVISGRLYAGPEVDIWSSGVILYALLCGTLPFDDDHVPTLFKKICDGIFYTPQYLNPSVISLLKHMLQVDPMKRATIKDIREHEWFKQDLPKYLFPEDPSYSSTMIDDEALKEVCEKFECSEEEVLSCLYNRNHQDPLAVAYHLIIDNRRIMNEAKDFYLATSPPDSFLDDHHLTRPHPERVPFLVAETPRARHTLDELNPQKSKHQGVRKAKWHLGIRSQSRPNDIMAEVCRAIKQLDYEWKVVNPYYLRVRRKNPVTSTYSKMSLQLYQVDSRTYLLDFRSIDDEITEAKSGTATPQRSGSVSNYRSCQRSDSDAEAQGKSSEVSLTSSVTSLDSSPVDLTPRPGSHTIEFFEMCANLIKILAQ
T1 sequence (Q9Y478 whole entry): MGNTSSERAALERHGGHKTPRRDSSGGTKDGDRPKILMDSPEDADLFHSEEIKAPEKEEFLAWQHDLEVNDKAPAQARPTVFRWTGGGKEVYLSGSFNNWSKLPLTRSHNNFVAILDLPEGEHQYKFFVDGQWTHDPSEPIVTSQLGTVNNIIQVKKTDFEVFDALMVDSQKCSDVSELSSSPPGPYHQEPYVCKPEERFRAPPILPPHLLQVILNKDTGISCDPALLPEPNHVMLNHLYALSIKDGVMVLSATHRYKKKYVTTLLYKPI
T1 sequence (P54619 whole entry partner): as the sequence (P54619 whole entry partner) above

| Compound | EC150 (compound concentration showing 150% relative to the control (100%)) (human AMPK α1β1γ1 enzyme) | Emax (human AMPK α1β1γ1 enzyme; [1]) | EC150 (compound concentration showing 150% relative to the control (100%)) (Human AMPK α2β2γ1) | Emax (Human AMPK α2β2γ1) | Emax (maximum rate of increase in activity within the measurement range) (human AMPK α1β1γ1 enzyme; [1]) |
| --- | --- | --- | --- | --- | --- |
| CC(=O)NC1CC=C(c2ccc(-c3nc4nc(O[C@H]5CC[C@H](CC(=O)O)CC5)[nH]c4cc3Cl)cc2)CC1 (stereo partly shown) [Compound I-2-76] | 14 nM | 232% | 85 nM | 175% |  |
| CC(Oc1nc2nc(-c3ccc(N4CCCC4)cc3)c(Cl)cc2[nH]1)c1cc(O)no1 (stereo not shown) [Compound I-2-112] | 25 nM | 246% | 74 nM | 269% |  |
| CN(C)C(=O)[C@H]1C[C@@H](Oc2nc3nc(-c4ccc(C5=CCC(C(=O)O)CC5)cc4)c(Cl)cc3[nH]2)C1 (stereo partly shown) [Compound I-2-129] |  | 276% |  | 339% |  |
| CC(C)(C(=O)O)[C@]1(O)CC[C@@H](Oc2nc3nc(-c4ccc(N5CCOCC5)cc4)c(Cl)cc3[nH]2)CC1 [Compound I-3-24] | 0.79 nM |  | 11 nM | 271% | 318% |
| CC(C)(C(=O)O)[C@]1(O)CC[C@@H](Oc2nc3nc(-c4ccc(N5CCCC5)cc4)c(Cl)cc3[nH]2)CC1 [Compound I-3-30] | 0.49 nM | 345% | 12 nM | 271% |  |
| CC(C)(C(=O)O)C1CCC(Oc2nc3nc(-c4ccc(C5(CO)CC5)cc4)c(Cl)cc3[nH]2)CC1 (stereo not shown) [Compound I-3-37] | 5.6 nM | 257% | 5 nM | 237% |  |
| CC(C)(C(=O)O)[C@H]1CC[C@H](Oc2nc3nc(-c4c(F)cc(N5CCOCC5)cc4F)ccc3[nH]2)CC1 [Compound I-3-40] | 23 nM | 244% | 69 nM | 228% |  |
| CN(C)C(=O)[C@]1(O)CC[C@@H](Oc2nc3nc(-c4ccc(C5=CCC(C(=O)O)CC5)cc4)c(Cl)cc3[nH]2)CC1 (stereo partly shown) [Compound I-3-54] | 270 nM | 201% | 2.2 nM | 373% |  |
| CC(=O)NC1CC=C(c2ccc(-c3nc4nc(O[C@H]5CC[C@H](C(C)(C)CO)CC5)[nH]c4cc3Cl)cc2)CC1 (stereo partly shown) [Compound I-3-86] | 23 nM | 277% | 11 nM | 259% |  |
| CC(C)(C(=O)O)[C@H]1CC[C@H](Oc2nc3nc(-c4ccc(C5=CCN(C(=O)CO)CC5)cc4)c(Cl)cc3[nH]2)CC1 [Compound I-3-90] | 17 nM | 320% | 21 nM | 274% |  |
| CC(C)(C(=O)O)[C@]1(F)CC[C@@H](Oc2nc3nc(-c4ccc(N5CCOCC5)cc4)c(Cl)cc3[nH]2)CC1 [Compound I-3-99] | 3.7 nM | 310% | 15 nM | 261% |  |
| NC(=O)c1ccc(-c2ccc(-c3nc4nc(O[C@H]5CC[C@H](C(=O)O)CC5)[nH]c4cc3Cl)cc2)cc1 [Compound I-3-120] | 28 nM | 216% | 7 nM | 262% |  |
